The record followed here is patent US9051326B2, “Pyrazoline derivatives and their use as selective androgen receptor modulators” (NOVARTIS AG, priority 2011, dated 2015).

For the assay, the target named is T1, androgen receptor (AR) (Homo sapiens, UniProt P10275).
T1 construct: transfecting C2C12 cells with a plasmid containing full-length AR along with an AR response element linked to luciferase; expressed in transfected cells; host or cells: mouse myoblastic C2C12 cells (ATCC CRL-1772), transient transfection with Lipofectamine 2000
T1 sequence (P10275 1-920): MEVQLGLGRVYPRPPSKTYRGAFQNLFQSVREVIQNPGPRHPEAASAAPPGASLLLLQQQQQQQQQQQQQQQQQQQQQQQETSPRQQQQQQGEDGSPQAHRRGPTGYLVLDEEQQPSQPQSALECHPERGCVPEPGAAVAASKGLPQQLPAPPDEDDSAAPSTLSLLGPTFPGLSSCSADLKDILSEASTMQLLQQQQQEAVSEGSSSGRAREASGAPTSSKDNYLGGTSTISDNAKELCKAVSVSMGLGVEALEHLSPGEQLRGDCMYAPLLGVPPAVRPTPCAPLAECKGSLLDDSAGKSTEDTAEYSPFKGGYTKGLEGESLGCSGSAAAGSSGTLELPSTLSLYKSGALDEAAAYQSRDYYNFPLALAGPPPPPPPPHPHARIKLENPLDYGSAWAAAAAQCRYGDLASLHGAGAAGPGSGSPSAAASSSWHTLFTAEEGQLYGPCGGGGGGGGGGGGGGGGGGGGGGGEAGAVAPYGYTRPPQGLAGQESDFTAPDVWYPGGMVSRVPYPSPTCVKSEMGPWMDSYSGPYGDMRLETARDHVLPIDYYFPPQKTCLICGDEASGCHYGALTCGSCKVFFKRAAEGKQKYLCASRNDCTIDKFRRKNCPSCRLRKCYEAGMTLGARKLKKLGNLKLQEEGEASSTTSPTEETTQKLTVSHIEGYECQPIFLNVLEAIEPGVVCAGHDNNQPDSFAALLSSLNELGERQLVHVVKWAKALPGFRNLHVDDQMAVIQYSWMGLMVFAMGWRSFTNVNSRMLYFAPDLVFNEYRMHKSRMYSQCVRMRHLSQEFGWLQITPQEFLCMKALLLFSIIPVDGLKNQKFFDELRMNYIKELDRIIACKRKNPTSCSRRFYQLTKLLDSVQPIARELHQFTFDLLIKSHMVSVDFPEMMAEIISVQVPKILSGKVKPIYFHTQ
The assay can be described thus: AR transcriptional activation luciferase reporter assay in C2C12 cells (Test 1). In kind it is cell-based. To be noted: for % Biological activity (C2C12 cell) 100 nM: 100 nM compound; for % Biological activity (C2C12 cell) 100 nM / % Biological activity (C2C12 cell) 5 μM: activity relative to 1 μM DHT. Here is the method:
A suitable assay to determine the ability of a ligand to transcriptionally activate androgen receptor (AR) is carried out using mouse myoblastic C2C12 cells. The assay involves transfecting C2C12 cells with a plasmid containing full-length AR along with an AR response element linked to luciferase (2XIDR17). The luminescence read-out at the end of the assay is measured using Victor 3 and is a direct measure of the transcriptional activity. The assay has been validated using the reference compound, BMS-564929, for which EC50 values have been reported in a similar set-up. Other tool compounds that have been used for assay validation are GSK-420A, Andarine, putative Ostarine, and LGD-2226.
C2C12 cells were obtained from ATCC (Cat # CRL-1772) and maintained in DMEM modified to contain 4 mM L-glutamine, 4.5 g/L glucose, 1 mM sodium pyruvate and 1.5 g/L sodium bicarbonate and 10% FBS.
AR-FL in pcDNA 3.1(+) and 2XIDR17 in pGL4.26 plasmids prepared using Genelute plasmid miniprep kit from Sigma Cat # PLED35
• C2C12 cells were seeded in a 96-well plate in DMEM (Dulbecco's Modified Eagle Medium) without phenol red and containing 10% CS-FBS (Charcoal-stripped Fetal Bovine Serum) at 8000 cells/well. • The next day, cells were transfected with an equimolar ratio of (Androgen Receptor-Full length) AR-FL and 2XIDR17-Luciferase at a total plasmid concentration of 200 ng/well using Lipofectamine 2000 following manufacturer's protocol. • For the transfection, 83 ng of AR-FL and 117 ng of 2XIDR17-Luciferase were in 12.5 μl of OptiMEM—Mix A. 0.4 μl of Lipofectamine 2000 was added to 12.5 μl of OptiMEM and incubated for 5 min at room temperature—Mix B. The two mixes A and B were mixed and incubated at room temperature for an additional fifteen minutes. An additional 50 μl of OptiMEM was added, gently mixed and this mixture was added to the cells in the 96-well plate. The above quantities are requirements per well of a 96-well plate. Master mixes were made for the entire plate, with proportional quantity of reagents being used. • 5 h after transfection, compounds were added to the wells in DMEM without phenol red and containing 10% CS-FBS, maintaining a final DMSO concentration of 0.5%. A typical dose response curve starts at 10 μM and includes a 7-point, log dilution, done in triplicates. • After overnight incubation with the compounds, 100 ul of working solution of Steadyglow reagent was added to the wells. • The plates were placed in a shaker for 15 min at the end of which the lysate containing luciferase was transferred to a white flat-bottom plate and read under a luminescence setting in Victor. • Background subtracted counts (Luminescence from DMSO control wells is considered the background) are used to calculate percentage activity, expressed relative to activity with 1 μM (Dihydrotestosterone) DHT (at least two sets of triplicates for 1 μM DHT are included per plate). Data Fitting: • The EC50 curves for the compounds for 8 compound concentrations were fitted by the respective function using non-linear least-squares regression in Graphpad Prism 4.0 (Graphpad Software, San Diego, Calif., USA).
Background: Reporter assays use an easily measured gene product as a stand-in for the process of interest.

Where [1] appears, read: mouse myoblastic C2C12 cells transfected with AR-FL and 2XIDR17-luciferase, read-out: Biological activity (C2C12 cell) EC50.

The EC50 is the midpoint of the concentration-response curve.

Where two headings read alike, the source gives them in different places.

`CO[C@@H]1C(c2ccc(C#N)c(Cl)c2C)=NN2CC[C@@H](O)[C@@H]12` [Example 2, 2-chloro-4-((3S,3aS,4R)-4-hydroxy-3-methoxy-3a,4,5,6-tetrahydro-3H-pyrrolo[1,2-b]pyrazol-2-yl)-3-methylbenzonitrile] had an EC50 of 0.6 nM.
`Cc1c(C2=NN3CC[C@H](O)[C@H]3[C@@H]2O)ccc(C#N)c1Cl` [Example 3, 2-chloro-4-((3S,3aS,4S)-3,4-dihydroxy-3a,4,5,6-tetrahydro-3H-pyrrolo[1,2-b]pyrazol-2-yl)-3-methylbenzonitrile] had a 50% effective concentration (EC50) of 821 nM.
For the compound `Cc1c(C2=NN3CC[C@@H](O)[C@H]3[C@@H]2O)ccc(C#N)c1Cl` [Example 4, 2-chloro-4-((3S,3aS,4R)-3,4-dihydroxy-3a,4,5,6-tetrahydro-3H-pyrrolo[1,2-b]pyrazol-2-yl)-3-methylbenzonitrile], the “% Biological activity (C2C12 cell) 100 nM” value amounted to 5%. For the same compound, under “5 μM compound”, the “% Biological activity (C2C12 cell) 5 μM” value is recorded as 32%.
For `CCO[C@@H]1C(c2ccc(C#N)c(Cl)c2C)=NN2CC[C@@H](O)[C@@H]12` [Example 6, 2-chloro-4-((3S,3aS,4R)-3-ethoxy-4-hydroxy-3a,4,5,6-tetrahydro-3H-pyrrolo[1,2-b]pyrazol-2-yl)-3-methylbenzonitrile], the EC50 came out at 0.6 nM.
The compound `Cc1c(C2=NN3CC[C@H](O)[C@H]3[C@@H]2OC(C)C)ccc(C#N)c1Cl` [Example 7, 2-chloro-4-((3S,3aS,4S)-4-hydroxy-3-isopropoxy-3a,4,5,6-tetrahydro-3H-pyrrolo[1,2-b]pyrazol-2-yl)-3-methylbenzonitrile] returned an EC50 of 4 nM.
The same measure, in the same setting: the result for `CO[C@@H]1C(c2ccc(C#N)c(Cl)c2C)=NN2C[C@H](O)C[C@@H]12` [Example 8, 2-chloro-4-((3S,3aS,5R)-5-hydroxy-3-methoxy-3a,4,5,6-tetrahydro-3H-pyrrolo[1,2-b]pyrazol-2-yl)-3-methylbenzonitrile] reads 6.7 nM; that for `CO[C@@H]1C(c2ccc(C#N)c(Cl)c2C)=NN2CC(=O)C[C@@H]12` [Example 9, 2-chloro-4-((3S,3aS)-3-methoxy-5-oxo-3a,4,5,6-tetrahydro-3H-pyrrolo[1,2-b]pyrazol-2-yl)-3-methylbenzonitrile], 10.5 nM.
For `Cc1c(C2=NN3C[C@H](O)C[C@H]3[C@@H]2O)ccc(C#N)c1Cl` [Example 10, 2-chloro-4-((3S,3aS,5R)-3,5-dihydroxy-3a,4,5,6-tetrahydro-3H-pyrrolo[1,2-b]pyrazol-2-yl)-3-methylbenzonitrile], the “% Biological activity (C2C12 cell) 100 nM” value is 4%. Moreover, for the setting “5 μM compound”, the “% Biological activity (C2C12 cell) 5 μM” value came to 2%.
In the case of `CO[C@@H]1C(c2ccc(C#N)c(Cl)c2C)=NN2CC(O)(C(F)(F)F)C[C@@H]12` (stereo partly drawn) [Example 11, 2-chloro-4-((3S,3aS)-5-hydroxy-3-methoxy-5-(trifluoromethyl)-3a,4,5,6-tetrahydro-3H-pyrrolo[1,2-b]pyrazol-2-yl)-3-methylbenzonitrile], the “% Biological activity (C2C12 cell) 100 nM” value stood at 24%. Also, the “% Biological activity (C2C12 cell) 5 μM” value (5 μM compound) was found to be 33%.
Take `CO[C@@H]1C(c2ccc(C#N)c(Cl)c2C)=NN2CC[C@@H](F)[C@@H]12` [Example 12, 2-chloro-4-((3S,3aR,4R)-4-fluoro-3-methoxy-3a,4,5,6-tetrahydro-3H-pyrrolo[1,2-b]pyrazol-2-yl)-3-methylbenzonitrile]: the EC50 amounted to 0.1 nM.
As for `CO[C@@H]1C(c2ccc(C#N)c(Cl)c2C)=NN2CC[C@H](F)[C@@H]12` [Example 13, 2-chloro-4-((3S,3aR,4S)-4-fluoro-3-methoxy-3a,4,5,6-tetrahydro-3H-pyrrolo[1,2-b]pyrazol-2-yl)-3-methylbenzonitrile], the EC50 is 1.3 nM.
Compound `CO[C@@H]1C(c2ccc(C#N)c(Cl)c2C)=NN2C[C@@H](F)C[C@@H]12` [Example 14, 2-chloro-4-((3S,3aS,5S)-5-fluoro-3-methoxy-3a,4,5,6-tetrahydro-3H-pyrrolo[1,2-b]pyrazol-2-yl)-3-methylbenzonitrile] showed an EC50 of 1.7 nM.
On the same count and under the same terms, for `CO[C@@H]1C(c2ccc(C#N)c(Cl)c2C)=NN2CC(F)(F)C[C@@H]12` [Example 15, 2-chloro-4-((3S,3aS)-5,5-difluoro-3-methoxy-3a,4,5,6-tetrahydro-3H-pyrrolo[1,2-b]pyrazol-2-yl)-3-methylbenzonitrile] the value was 0.1 nM; for `Cc1c(C2=NN3CC[C@H](O)[C@H]3[C@@H]2OCCF)ccc(C#N)c1Cl` [Example 16, 2-chloro-4-((3S,3aS,4S)-3-(2-fluoroethoxy)-4-hydroxy-3a,4,5,6-tetrahydro-3H-pyrrolo[1,2-b]pyrazol-2-yl)-3-methylbenzonitrile], 2 nM.
As to `Cc1c(C2=NN3CC[C@H](O)[C@H]3[C@@H]2OCC2CC2)ccc(C#N)c1Cl` [Example 17, 2-chloro-4-((3S,3aS,4S)-3-(cyclopropylmethoxy)-4-hydroxy-3a,4,5,6-tetrahydro-3H-pyrrolo[1,2-b]pyrazol-2-yl)-3-methylbenzonitrile], the “% Biological activity (C2C12 cell) 100 nM” value was 91%. Besides, under “5 μM compound”, the “% Biological activity (C2C12 cell) 5 μM” value is 100%.
As for `CO[C@@H]1C(c2ccc(C#N)c(Cl)c2C)=NN2C[C@@H](O)C[C@@H]12` [Example 18, 2-chloro-4-((3S,3aS,5S)-5-hydroxy-3-methoxy-3a,4,5,6-tetrahydro-3H-pyrrolo[1,2-b]pyrazol-2-yl)-3-methylbenzonitrile], the “activity at 5 μM concentration (C2C12 cell)” value (5 μM compound, symbol defined in table footnote) is “** (at 5 μM concentration, <10% activity)”.
Take `CO[C@@H]1C(c2ccc(C#N)c(Cl)c2C)=NN2C[C@@H](I)C[C@@H]12` [Example 19, 2-chloro-4-((3S,3aS,5S)-5-iodo-3-methoxy-3a,4,5,6-tetrahydro-3H-pyrrolo[1,2-b]pyrazol-2-yl)-3-methylbenzonitrile]: the EC50 came to 7 nM.
Consider `CO[C@H]1CCN2N=C(c3ccc(C#N)c(Cl)c3C)[C@@H](OC)[C@H]12` [Example 20, 2-chloro-4-((3S,3aS,4S)-3,4-dimethoxy-3a,4,5,6-tetrahydro-3H-pyrrolo[1,2-b]pyrazol-2-yl)-3-methylbenzonitrile], for which the EC50 under setting [1] was found to be 7.1 nM.
Same read-out and setting: for `COCCO[C@@H]1C(c2ccc(C#N)c(Cl)c2C)=NN2CC[C@H](O)[C@@H]12` [Example 21, 2-chloro-4-((3S,3aS,4S)-4-hydroxy-3-(2-methoxyethoxy)-3a,4,5,6-tetrahydro-3H-pyrrolo[1,2-b]pyrazol-2-yl)-3-methylbenzonitrile] the value was 0.93 nM.
